# Results reported in patent US20230174538A1, “Tricyclic heterocycles” (Merck Patent GmbH, priority 2020, published 2023).
# Experiments:
# [1] = test system: NCI-H226 cells; experiment: Viability assay in NCI-H226 (Yap-dependent) cells, CyQUANT; type: cell-based; conditions: Homo sapiens
# Procedure: (§1) Viability Assay in NCI-H226 (Yap-Dependent) and SW620 Yap KO (Yap Independent) Cells
# (§2) The ability of YAP-TEAD inhibitors to inhibit tumor cell growth was evaluated using two different cell lines: NCI-H226, which is a YAP dependent cell line, and SW620 cells, where YAP and TAZ were knocked out using CRISPR to generate a YAP independent cell line.
# (§3) For the assay, cells were treated in duplicates with the test compounds in a 10-point dose, 1:3 dilution steps, with the top concentration starting at 30 μM (final concentration in assay). After a 96 hour incubation at 37° C., 95% rH, and 5% CO2, a cell-permeant DNA-binding dye that stains only healthy cells (CyQUANT®, Promega) was added to the cells, allowing the quantification of cell viability.
# (§4) Cell Media: The NCI-H226 cells were cultured in the following media: RPMI 1640, +10% FBS, +1× GlutaMAX, +10 mM HEPES, +0.5% Pen/Strep. The SW620-KO cells were cultured in the following media: DMEM/F-12, +10% FBS, +1× GlutaMAX, +10 mM HEPES, +0.5% Pen/Strep.
# (§5) Reagents: The reagents used are listed below:
# (§6) Cell culture: The cells were examined using an inverted microscope to check for health, cell density, etc. To dissociate adherent cells, the monolayer of cells was washed once with pre-warmed PBS. After removing the PBS, 3 ml pre-warmed Accutase was added to a F75 flask, dispersed evenly and the flask was allowed to sit in incubator for ˜4-5 minutes.
# (§7) When a single cell suspension was obtained, 7 ml of prewarmed growth media was added and resuspended with the cells. The cell suspension was transferred to a sterile 15 ml conical centrifuge tube, and spun for 5 min at 300×g, RT. The supernatant was discarded and the pellet was resuspended in 10 ml of pre-warmed growth media.
# (§8) The total cell count was determined, and 20 μl of the desired cell number was added to each well of a 384 well plate using a Multidrop Combi. The plates were then incubated for 24 hours at 37° C., 95% rH, and 5% CO2.
# (§9) Compound treatment: 24 hours after seeding, the cells were treated with compounds.
# (§10) A 1:333 dilution of compounds, diluted in DMSO, was made to get a final concentration of 0.3% DMSO per well. To transfer the compounds to the assay plate, 120 nl was shot from Labcyte low dead volume plates to the cell plates containing 20 μl media/well with the ECHO 555 liquid handling system.
# (§11) After treatment, the cells were fed with 20 μl fresh pre-warmed assay media using a Multidrop combi.
# (§12) The assay plates were then incubated for 96 h at 37° C., 95% rH, and 5% CO2.
# (§13) 96 h after treatment 30 μl of CyQuant® reagent was added to the assay plates using a Multidrop combi in the dark. The plates were then incubated for 1 hour at 37° C., 95% rH and 5% CO2. Thereafter, the assay plates were removed from the incubator and allowed to equilibrate to RT for 30 min in the dark without lid. Finally, they were measured using an EnVision microplate reader with a FITC bottom read program.
# [2] = test system: YAP-TEAD interaction; experiment: SK-HEP-1 reporter assay (8xTEAD responsive elements driving NanoLuc luciferase); type: cell-based; conditions: Homo sapiens, SK-HEP1, SK-HEP-1 reporter assay
# Method in brief: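 SK-HEP-1 cells stably carrying an 8×TEAD-element NanoLuc reporter were treated in duplicate with 10-point dilutions from a top final 30 μM (0.3% DMSO). After 24 h at 37 °C, luciferase activity was read by luminescence with NanoGlo lysis/substrate reagent, and IC50 values were derived.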
# [3] = test system: SW620 Yap KO cells; experiment: Viability assay in SW620 Yap KO (Yap independent) cells, CyQUANT; type: cell-based; conditions: Homo sapiens, SW-620
# Procedure: as §1, §2, §3, §4, §5, §6, §7, §8, §9, §10, §11, §12, §13
# [4] = test system: NCI-H226 human mesothelioma tumor cells; experiment: NCI-H226 in vivo efficacy study (subcutaneous xenograft); conditions: H2d Rag2 female mice, NCI-H226 tumors, po qd for 29 days
# Procedure: NCI-H226 In Vivo Efficacy Study
# 7-9-week-old H2d Rag2 female mice (own breeding, Taconic-Denmark) were inoculated subcutaneously with 5×10^6 NCI-H226 human mesothelioma tumor cells in the right flank. Tumor growth and body weight was measured twice weekly using caliper. Tumor volume was calculated using the formula TV=L×W×W/2.
# When tumor volume reached approximately 75-150 mm^3, animals were randomized (Day 0) into treatment groups (n=9-10/group) and treated perorally (po) once daily (qd) for 29 days with either vehicle (20% hydroxypropyl β-cyclodextrin in 50 mM PBS pH 7.4) or Compound no. 2. Compound no. 2 was tested at dosing levels of 1, 3, 10, 30, and 100 mg/kg, respectively. Results are depicted in FIG. 1 (tumor growth over time for vehicle group and each dosage group) and FIG. 2 (final tumor volume of vehicle group and each dosage group).
# Statistical analysis of tumor volumes between treatment groups was done using repeated measures analysis of covariance (RM-ANCOVA) in a linear mixed effects model followed by least-squares means pairwise comparisons.
# The animal experiment was performed under regulation of the German animal welfare act and in accordance with the EU laboratory animal directive for the area of animal experiments.
smiles,measurement,setting,value
"Cn1cc2c(n1)c1cc(C#N)ccc1n2-c1ccc(C(F)(F)F)cc1 [Example 19, 2-methyl-4-[4-(trifluoromethyl)phenyl]pyrazolo [4,3-b]indole-7-carbonitrile]",IC50,[1],> 10000 nM
same,IC50,[2],> 10000 nM
same,melting point,,208 to 210 °C
same,IC50,[3],> 30000 nM
"Cn1cc2c3cc(C(=O)NC4CC4)ccc3n(-c3ccc(C(F)(F)F)nc3)c2n1 [Example 27, N-cyclopropyl-2-methyl-8-[6-(trifluoromethyl)pyridin-3-yl]-2H,8H-pyrazolo[3,4-b]indole-5-carboxamide]",IC50,[1],1 to 100 nM
same,IC50,[2],1 to 10 nM
same,melting point,,300 °C
same,IC50,[3],> 30000 nM
"Cc1nc2c(s1)c1cc(C(=O)O)ccc1n2-c1ccc(C(F)(F)F)cc1 [Example 25, 2-methyl-4-[4-(trifluoromethyl)phenyl]-[1,3]thiazolo[4,5-b]indole-7-carboxylic acid]",IC50,[1],100 to 1000 nM
same,IC50,[2],10 to 100 nM
same,melting point,,169 to 171 °C
same,IC50,[3],1000 to 10000 nM
"CCOc1ccc(-n2c3ccc(C(=O)O)cc3c3cn(C)nc32)cc1 [Example 15, 8-(4-Ethoxyphenyl)-2-methyl-2H,8H-pyrazolo[3,4-b]indole-5-carboxylic acid]",IC50,[1],100 to 1000 nM
same,IC50,[2],10 to 100 nM
same,melting point,,179 to 181 °C
same,IC50,[3],> 30000 nM
"Cn1cc2c3cc(CNC(=O)CCl)ccc3n(-c3ccc(C(F)(F)F)cc3)c2n1 [Example 24, 2-chloro-N—([2-methyl-8-[4-(trifluoromethyl)phenyl]pyrazolo[3,4-b]indol-5-yl]methyl)acetamide]",IC50,[1],100 to 1000 nM
same,IC50,[2],100 to 10000 nM
same,melting point,,221 to 222 °C
same,IC50,[3],1000 to 10000 nM
"Cn1cc2c3cc(C(=O)O[C@@H]4O[C@H](C(=O)O)[C@@H](O)[C@H](O)[C@H]4O)ccc3n(-c3ccc(C(F)(F)F)cc3)c2n1 [Example 30, (2S,3S,4S,5R,6S)-3,4,5-trihydroxy-6-{2-methyl-8-[4-(trifluoromethyl)phenyl]-2H,8H-pyrazolo[3,4-b]indole-5-carbonyloxy}oxane-2-carboxylic acid]",IC50,[1],1000 to 10000 nM
same,IC50,[2],100 to 10000 nM
same,melting point,,110 to 111 °C
same,IC50,[3],> 30000 nM
"COC(=O)c1ccc2c(c1)c1nn(C)cc1n2-c1ccc(C(F)(F)F)cc1 [Example 16, Methyl 2-methyl-4-[4-(trifluoromethyl)phenyl]pyrazolo[4,3-b]indole-7-carboxylate]",IC50,[1],1 to 100 nM
same,IC50,[2],10 to 100 nM
same,melting point,,111 to 112 °C
same,IC50,[3],1000 to 10000 nM
"C=CC(=O)Nc1ccc2c(c1)c1cn(C)nc1n2-c1ccc(C(F)(F)F)cc1 [Example 20, N-[2-methyl-8-[4-(trifluoromethyl)phenyl]pyrazolo[3,4-b]indol-5-yl]prop-2-enamide]",IC50,[1],100 to 1000 nM
same,IC50,[2],1 to 10 nM
same,melting point,,223 to 224 °C
same,IC50,[3],10000 to 30000 nM
"Cn1cc2c3cc(C(=O)NCc4ccncc4)ccc3n(-c3ccc(C(F)(F)F)cc3)c2n1 [Example 28, 2-methyl-N—[(pyridin-4-yl)methyl]-8-[4-(trifluoromethyl)phenyl]-2H, 8H-pyrazolo[3,4-b]indole-5-carboxamide]",IC50,[2],> 10000 nM
same,melting point,,181 to 185 °C
COc1nc(C)cc(CNC(=O)c2ccc3c(c2)c2cn(C)nc2n3-c2ccc(C(F)(F)F)cc2)n1 [B126^],IC50,[1],1 to 100 nM
same,IC50,[2],10 to 100 nM
same,IC50,[3],> 30000 nM
"Cn1cc2c3cc(C(=O)O)ccc3n(-c3ccc(C(F)(F)F)cc3)c2n1 [Example 2, 2-methyl-8-[4-(trifluoromethyl)phenyl]-2H,8H-pyrazolo[3,4-b]indole-5-carboxylic acid]",IC50,[2],1 to 10 nM
same,dosing levels showing maximal tumor growth inhibition,[4],> 10 mg/kg
same,tumor growth inhibition compared to vehicle treated group,"[4]; 1, 3, 10, 30 and 100 mg/kg, all tested dosing levels, p-value <0.001",Significant tumor growth inhibition
same,IC50,[3],> 30000 nM
"Cn1cc2c(n1)c1cc(S(C)(=N)=O)ccc1n2-c1ccc(C(F)(F)F)cc1 (stereo not drawn) [Example 35, Imino(methyl){2-methyl-4-[4-(trifluoromethyl)phenyl]-2H,4H-pyrazolo[4,3-b]indol-7-yl}-lambda6-sulfanone]",IC50,[1],100 to 1000 nM
same,IC50,[2],1 to 10 nM
same,IC50,[3],> 30000 nM
"C=CC(=O)NCc1ccc2c(c1)c1cn(C)nc1n2-c1ccc(C(F)(F)F)cc1 [Example 21, N—([2-methyl-8-[4-(trifluoromethyl)phenyl]pyrazolo [3,4-b]indol-5-yl]methyl)prop-2-enamide]",IC50,[1],1000 to 10000 nM
same,IC50,[2],1 to 10 nM
same,melting point,,185 to 187 °C
same,IC50,[3],10000 to 30000 nM
